Measurements as given in patent US20250213603A1, “PHARMACEUTICAL COMPOSITION FOR TREATING CANCER” (SAGA UNIVERSITY, priority 2021, published 2025).
Entries after “also recorded” stand apart in the source; their conditions may differ.

Key:
K562 = assay: Effect of autophagy inhibition on the cell proliferation inhibitory effect; type: cell-based; conditions: 5 mM FA-HP-β-CyD or 15 mM HP-β-CyD, chloroquine, bafilomycin A1 or LY294002 (FIG. 8)
Method: (§1) The effect of autophagy inhibition on the cell proliferation inhibitory effect was evaluated as follows.
(§2) Leukemia cell lines (K562 and BV173) were used in this example. The FA-HP-β-CyD synthesized in Example 1 was used.
(§3) 2×10^5 of each cell with 100 μL RPMI1640 medium (Sigma-Aldrich, USA) was seeded per well to a flatbottom 96-well plate (Greiner Labortechnik, Hamburg, Germany), and treatment was carried out for 2 hours at 37° C. with 5 mM FA-HP-β-CyD and 15 mM HP-β-CyD. Pretreatment was then carried out for 24 hours with the autophagy inhibitors chloroquine (20 μM) (FUJIFILM Wako Pure Chemical Corporation), bafilomycin A1 (1 nM) (Funakoshi), or LY294002 (50 μM) (FUJIFILM Wako Pure Chemical Corporation). Cell proliferation was then evaluated using a Cell Counting Kit-8 (Dojindo, Japan), which is a modified dimethyl-thiazole-diphenyl-tetrazolium (MTT) assay.
(§4) Here, the “CT” in FIG. 8 was evaluated as follows. Thus, 2×10^5 of each cell with 100 μL RPMI1640 medium was seeded per well to a flatbottom 96-well plate and culture was carried out for 2 hours+24 hours as in the exposure groups, but without exposure to the agent or autophagy inhibitor, and this was used as the CT. This CT was compared with the exposure groups.
(§5) Significant difference was determined as follows. That is, the data were analyzed using a two-sided Student's t-test without a comparison table. A value of P<0.05 was considered to indicate a significant difference.

BV173 [1] = assay: as above; type: cell-based; conditions: 5 mM FA-HP-β-CyD or 15 mM HP-β-CyD, chloroquine, bafilomycin A1 or LY294002 (FIG. 8)
Method: as §1, §2, §3, §4, §5

[2] = test system: leukemia cell lines (K562, BV173, Ba/F3 p190, Ba/F3 p210, MYL-R, K562-IMR, and KBM5-STI); assay: Comparison of cytotoxic activity across leukemia cell lines (MTT assay); type: cell-based; conditions: Example 3
Method: The proliferation inhibitory action in leukemia cell lines was evaluated using a modified dimethyl-thiazole-diphenyl-tetrazolium (MTT) assay as follows.
The hepatocyte line and leukemia cell lines (K562, BV173, Ba/F3 p190, Ba/F3 p210, MYL-R, K562-IMR, and KBM5-STI) were used in this example. The FA-HP-β-CyD synthesized in Example 1 was used.
The cell viability was evaluated using the trypan blue dye exclusion method. Cell proliferation was evaluated using a Cell Counting Kit-8 (Dojindo, Japan), which is an MTT assay. 2×10^4 of each cell was seeded with 100 μL RPMI1640 medium (Sigma-Aldrich, USA) per well to a flatbottom 96-well plate (Greiner Labortechnik, Hamburg, Germany), and incubation for 72 hours was carried out with exposure to HP-β-CyD and FA-HP-β-CyD at different concentrations (0 mM (control: CT), 0.05 mM, 0.1 mM, 0.25 mM, 0.5 mM, and 1 mM).
According to Table 1, IC50 for FA-HP-β-CyD in the leukemia cell lines (K562, BV173, Ba/F3 p190, Ba/F3 p210, MYL-R, K562-IMR, and KBM5-STI) is shown to be about ⅕ to about 1/20 of that for HP-β-CyD. […] FA-HP-β-CyD is thus shown to have a stronger cytotoxic activity than HP-β-CyD.

[3] = test system: BV173 cells (leukemia cells); assay: Ventricular invasion mouse model (leukemic invasion of the central nervous system); type: in vivo, BRJ mice
Method: Here, the effect of HP-β-CyD and FA-HP-β-CyD on leukemic central nervous system invasion was test by constructing a mouse model.
BRJ mice (female) were anesthetized (intraperitoneal administration (IP) of 100 μL of a triple anesthetic of medetomidine hydrochloride (0.75 mg/kg), mitazolam (4 mg/kg), and butorphanol tartrate (5 mg/kg)), and intrathecal transplantation was carried out, through the right coronal suture at a point 1 mm to the right of the center line defined by the sagittal suture, with a polyethylene stop tube-equipped microsyringe designed to inject BV173 cells (leukemia cells) precisely to a depth of 3 mm using a Hamilton syringe LT type needle tip style pst-3 and 25 gauge.
(§6) The FA-HP-β-CyD synthesized in Example 1 was used in this example.
The doses were set at 30 mg/kg for HP-β-CyD and 3 mg/kg for FA-HP-β-CyD by referring to the dose of HP-β-CyD for a mouse model of the hereditary lipid storage disease Niemann-Pick disease type C (NPC) (Int. J. Mol. Sci. 2021, 22, 452. https://doi.org/10.3390/ijms22010452).
as §5

[4] = test system: EGFP+Ba/F3 BCR-ABLWT cells; assay: Survival extension in a BCR-ABL leukemia mouse model; type: in vivo, nude mice; conditions: 15 mM (249 mg/kg) FA-HP-β-CyD vs 150 mM (2086.5 mg/kg) HP-β-CyD, intraperitoneally twice a day for 20 days (FIG. 10)
Method: The effect due to FA-HP-β-CyD on the extension of survival in a BCR-ABL leukemia mouse model was evaluated as follows.
as §6
EGFP+Ba/F3 BCR-ABLWT cells (1×10^6 cells) were transplanted into 6-week-old nude mice. Three days after transplantation, 200 μL vehicle (n=10), 150 mM (2086.5 mg/kg) HP-β-CyD (n=10), 15 mM (249 mg/kg) FA-HP-β-CyD (n=10), or […] (200 mg/kg) imatinib (n=10) was injected intraperitoneally twice a day for 20 days. The survival time was monitored daily. The survival data were analyzed using a log-rank nonparametric test and are reported as Kaplan-Meier survival curves.
as §5

BV173 [5] = assay: Cellular uptake of TRITC-labelled CyD, confocal microscopy; type: cell-based; conditions: confocal microscopy (FIG. 6)
Method: The cellular uptake of FA-HP-β-CyD was evaluated as follows.
A leukemia cell line (BV173) was used in this example. The FA-HP-β-CyD synthesized in Example 1 was used.
10 mg HP-β-CyD or FA-HP-β-CyD and 1 mg of TRITC were dissolved in 400 μL of dimethyl sulfoxide (DMSO) with stirring for 24 hours and the solution was then gradually poured into acetone. A precipitate was obtained and was washed with water. This was freeze-dried to prepare TRITC-HP-β-CyD and TRITC-FA-HP-β-CyD.
The cells were then cultured at a cell density of 4×10e5 per well on a 6-well plate and were incubated with […], TRITC-HP-β-CyD, FA-HP-β-CyD, or HP-βCyD at different concentrations. A Zeiss LSM880 confocal microscope was used to observe the cells. Imaris (Zeiss) fluorescent image analysis software was used for analysis.
The Control refers to incubation at the same time as the other exposure groups, but without exposure to an agent. Cell localization was stained by DAPI and the cell membrane was stained with PlasMen Bright Green, and the cellular uptake of TRITC-FA-HP-β-CyD was evaluated using confocal microscopy.

folic acid-appended hydroxypropyl-β-cyclodextrin [FA-HP-β-CyD]
cell proliferation inhibitory capability on addition of an autophagy inhibitor (K562): reduced by the addition of an autophagy inhibitor
cell proliferation inhibitory capability on addition of an autophagy inhibitor (BV173 [1]): reduced by the addition of an autophagy inhibitor
amount giving the equivalent anti-leukemia action relative to un-appended HP-β-CyD [2]: approximately one-tenth the amount
survival in two-time administration model compared with one-time administration model ([3]; FIG. 14 compared with FIG. 13, HP-β-CyD 30 mg/kg, FA-HP-β-CyD 3 mg/kg): survival was extended by one day
survival in comparison to the vehicle group and HP-β-CyD group ([3]; administered two times, first and second week after transplantation, FA-HP-β-CyD 3 mg/kg (FIG. 14)): extension of survival was confirmed
P versus the vehicle group (survival) ([3]; administered two times, first and second week, HP-β-CyD 30 mg/kg, FA-HP-β-CyD 3 mg/kg (FIG. 14)): 0.0472
survival in comparison to the vehicle group and HP-β-CyD group ([3]; single administration in the second week after ventricular transplantation, FA-HP-β-CyD 3 mg/kg (FIG. 13)): extension of survival was confirmed
P versus the vehicle group (survival) ([3]; single administration in the second week, HP-β-CyD 30 mg/kg, FA-HP-β-CyD 3 mg/kg (FIG. 13)): 0.0111
survival time extension [4]: same survival time extension at one-tenth the amount of HP-β-CyD; also recorded: significant extension of the survival time
cellular uptake (BV173 [5]): incorporated in large amounts into the cell
